Literature values in PMC10320121 (Nucleic Acids Research, 2023).

- oral bioavailability (F): 47.45%
SMILES: N#Cc1ccc2[nH]cc(CCCCN3CCN(c4ccc5oc(C(N)=O)cc5c4)CC3)c2c1 [Vilazodone, vilazodone]
